Active and inactive are the calls of the source. The rule behind the calls is not given here.
Experiments:
Trichoplusia ni [1] = experiment: Insecticidal activity against Trichoplusia ni (cabbage looper) assessed as mortality after 3 days by cabbage leaf dip bioassay; type: functional; design: concentration or dose not given beside the values
Trichoplusia ni [2] = experiment: Insecticidal activity against Trichoplusia ni (cabbage looper) assessed as mortality after 2 days by cabbage leaf dip bioassay; type: functional, organism-based
[3] = Toxicity in Mus musculus ICR (mouse); type: organism-based; settings: in vivo
Trichoplusia ni [4] = experiment: Insecticidal activity against Trichoplusia ni (cabbage looper) assessed as mortality after 6 hr by cabbage leaf dip bioassay; type: functional, organism-based

Structure (SMILES): CC[C@H](C)[C@H]1O[C@]2(C=C[C@@H]1C)C[C@@H]1C[C@@H](C/C=C(\C)[C@@H](O[C@H]3C[C@H](OC)[C@@H](O[C@@H]4C[C@@](C)(OC)[C@@H](OC)[C@H](C)O4)[C@H](C)O3)[C@@H](C)/C=C/C=C3\CO[C@@H]4[C@H](O)C(C)=C[C@@H](C(=O)O1)[C@]34O)O2
- mortality (Trichoplusia ni [1]): 85%

Structure (SMILES): CC[C@H](C)[C@H]1O[C@]2(C=C[C@@H]1C)C[C@@H]1C[C@@H](C/C=C(\C)[C@@H](O[C@H]3C[C@H](OC)[C@@H](O[C@H]4C[C@H](OC)[C@@H](O)[C@H](C)O4)[C@H](C)O3)[C@@H](C)/C=C/C=C3\CO[C@@H]4[C@H](O)C(C)=C[C@@H](C(=O)O1)[C@]34O)O2 [ABAMECTIN COMPONENT B1A]
- mortality (Trichoplusia ni [1]): 53%
- Activity (Trichoplusia ni [2]): Active

Structure (SMILES): CC[C@H](C)[C@H]1O[C@]2(C=C[C@@H]1C)C[C@@H]1C[C@@H](C/C=C(\C)[C@@H](O[C@H]3C[C@H](OC)[C@@H](O[C@@H]4C[C@@](C)(OC)[C@@H](O)[C@H](C)O4)[C@H](C)O3)[C@@H](C)/C=C/C=C3\CO[C@@H]4[C@H](O)C(C)=C[C@@H](C(=O)O1)[C@]34O)O2
- LD50 [3]: 17.5 mg/kg
- Activity (Trichoplusia ni [4]): Active
- mortality (Trichoplusia ni [1]): 93%

Structure (SMILES): CC[C@H](C)[C@H]1O[C@]2(C=C[C@@H]1C)C[C@@H]1C[C@@H](C/C=C(\C)[C@@H](O[C@H]3C[C@H](OC)[C@@H](O[C@@H]4C[C@@](C)(OC)[C@@H](OC(C)=O)[C@H](C)O4)[C@H](C)O3)[C@@H](C)/C=C/C=C3\CO[C@@H]4[C@H](O)C(C)=C[C@@H](C(=O)O1)[C@]34O)O2
- mortality (Trichoplusia ni [1]): 72%

Structure (SMILES): CC[C@H](C)[C@H]1O[C@]2(C=C[C@@H]1C)C[C@@H]1C[C@@H](C/C=C(\C)[C@@H](O[C@H]3C[C@H](OC)[C@@H](O[C@@H]4C[C@@](C)(O)[C@@H](OC(C)=O)[C@H](C)O4)[C@H](C)O3)[C@@H](C)/C=C/C=C3\CO[C@@H]4[C@H](O)C(C)=C[C@@H](C(=O)O1)[C@]34O)O2
- mortality (Trichoplusia ni [1]): 61%

Structure (SMILES): CC[C@H](C)[C@H]1O[C@]2(C=C[C@@H]1C)C[C@@H]1C[C@@H](C/C=C(\C)[C@@H](O[C@H]3C[C@H](OC)[C@@H](O[C@H]4O[C@@H](C)[C@@H](O)[C@@H](O)[C@@H]4O)[C@H](C)O3)[C@@H](C)/C=C/C=C3\CO[C@@H]4[C@H](O)C(C)=C[C@@H](C(=O)O1)[C@]34O)O2
- mortality (Trichoplusia ni [1]): 37%

Structure (SMILES): CC[C@H](C)[C@H]1O[C@]2(C=C[C@@H]1C)C[C@@H]1C[C@@H](C/C=C(\C)[C@@H](O[C@H]3C[C@H](OC)[C@@H](O[C@H]4O[C@@H](C)[C@@H](OC)[C@@H](OC)[C@@H]4OC)[C@H](C)O3)[C@@H](C)/C=C/C=C3\CO[C@@H]4[C@H](O)C(C)=C[C@@H](C(=O)O1)[C@]34O)O2
- LD50 [3]: 87.5 mg/kg
- Activity (Trichoplusia ni [4]): Active
- mortality (Trichoplusia ni [1]): 93%

Structure (SMILES): CC[C@H](C)[C@H]1O[C@]2(C=C[C@@H]1C)C[C@@H]1C[C@@H](C/C=C(\C)[C@@H](O[C@H]3C[C@H](OC)[C@@H](O[C@@H]4C[C@@H](OC)[C@@H](NC)[C@@H](C)O4)[C@H](C)O3)[C@@H](C)/C=C/C=C3\CO[C@@H]4[C@H](O)C(C)=C[C@@H](C(=O)O1)[C@]34O)O2.O=C(O)c1ccccc1
- mortality (Trichoplusia ni [1]): 90%
- Activity (Trichoplusia ni [2]): Active

— ChEMBL document CHEMBL3046489, “Synthesis of new, potent avermectin-like insecticidal agents” (Carbohydr Res, 2005)
